The source of these data is patent US9708286B2, “Ingenol-3-acylates III and ingenol-3-carbamates” (LEO Laboratories Limited, priority 2010, dated 2017).

For experiment [1], the system named is PMN's (polymorphonuclear leukocytes). Description: Neutrophil oxidative burst. The experiment is classed as cell-based. Particulars: Leukocyte, 40 min, read-out: Neutrophil oxidative burst Rel EC50 range, PMN from buffy coats, 40 min at RT, hydroethidine fluorescence; normalized to 5×10^−7 M PEP0005. On the procedure:
PMN's (polymorphonuclear leukocytes) were isolated and purified from fresh buffy coats by sequential sedimentation, density centrifugation and lysis of contaminating erythrocytes. Buffy coats were incubated with 2% methocel for 30-45 min to differentially sediment red blood cells. The leukocyte-rich supernatant was transferred to lymphoprep tubes to remove mononuclear cells by density centrifugation (400×g, 30 min). The pellet was resuspended and any remaining erythrocytes lysed using 0.2% NaCl for 30 sec before restoring isotonicity by the addition of 1.2% NaCl. This step was repeated until the cell pellet appears relatively free of red blood cells. Cells were resuspended in DPBS (Dulbecco's Phosphate Buffered Saline) (w.o. Ca^2+, Mg^2+) and the concentration adjusted to 1.4×10^6 cells/ml in HBSS (Hanks Balanced Salt solution) (w Ca^2+, Mg^2±) containing 0.1% BSA (Bovine Serum Albumin) and 5 mM glucose just prior to assay initiation. Titrated reference and test compounds were pre-mixed with HE (Hydroethidine) (10 μM final assay concentration) before addition to 96-well plates containing 2.5×10^5 cells. Following 40 min incubation at RT, changes in the respiratory burst was estimated by measuring fluorescence at 579 nm (excitation: 485 nm) using an Envision plate reader.
Test compound titration curves were fitted to a four-parameter sigmoidal curve after normalizing the effect of the test compound to the effect of the positive control (5×10^−7 M PEP0005). Rel EC50 denotes the concentration of test compound producing an effect that is midway between the fitted top and bottom. Abs EC50 is the concentration of test compound that provokes a response corresponding to 50% of the maximal effect associated with the positive control (5×10^−7 M PEP0005).

For a further experiment, the system named is HeLa cells. Description: Necrosis assay. The experiment is classed as cell-based. As to conditions: Homo sapiens, HeLa, 0.5 h, read-out: HeLa necrosis EC50 range. On the procedure: HeLa cells (ATCC CCL-002) were grown in minimal essential medium (Invitrogen catalog no. 42360) containing 10% fetal bovine serum, 100 IU/ml penicillin and 100 μg/ml streptomycin. 4,000-6,000 cells were seeded into 96-well black ViewPlates-plates, clear bottom, (Perkin Elmer) in 100 μl medium and incubated overnight. Compounds were dissolved and pre-diluted in DMSO in 96-well polypropylene plates (Greiner) in a concentration range of 15 μM to 600 μM. At the time of the experiment cell plates were placed on heating blocks at 37° C., medium was removed and 40 μl fresh, pre-warmed medium was added per well. Cells were incubated for 15 min before addition of compounds. In parallel, 3 μl of compounds were diluted with 197 μl growth medium on a Tecan freedom-EVO pipetting station using 250 μl/s pipetting speed, in order to ensure effective mixing of the highly concentrated compound solutions with the aqueous phase. These pre-dilution plates were then equilibrated on heating blocks at 37° C. for 10 min. 80 μl pre-diluted compound were transferred manually to the corresponding wells containing HeLa cells yielding compound concentrations of 10 μM to 400 μM. Control conditions were 1% DMSO in growth medium (100% viability) and 400 μM ingenol mebutate in growth medium (0% viability). Plates were incubated on the heating blocks at 37° C. for 30 min. At the end of the incubation 10 μl PrestoBlue reagent (Invitrogen) were added to each well, plates were sealed with black seal, followed by incubation at 37° C. for 10 min with gentle shaking (150 rpm). Subsequently, plates were placed at room temperature for 20-30 min. Plates were read immediately after on an Envision Fluorescence reader (Perkin Elmer) with excitation at 535 nm and emission at 630 nm. Test compound titration curves were fitted to a four-parameter sigmoidal curve after normalizing the effect of the test compound to the effect of the positive control (4 10^−4 M PEP0005/ingenol mebutate). AbsEC50 denotes the concentration of test compound producing 50% effect.

For the compound `CC1=C[C@]23C(=O)[C@@H](C=C(CO)[C@@H](O)[C@]2(O)[C@H]1OC(=O)C12CCC(C)(C(=O)O1)C2(C)C)[C@H]1[C@@H](C[C@H]3C)C1(C)C` [Compound 503, Ingenol 3-(1S-camphanate)], in experiment [1], the EC50 (commonly the midpoint of the concentration-response curve) lay in the range of 20 to 100 nM.
As to `CC1=C[C@]23C(=O)[C@@H](C=C(CO)[C@@H](O)[C@]2(O)[C@H]1OC(=O)c1cc(-c2ccccc2)on1)[C@H]1[C@@H](C[C@H]3C)C1(C)C` [Compound 511, Ingenol 3-(5-phenylisoxazole-3-carboxylate)], the EC50 in experiment [1] is 20 to 100 nM; in the experiment with HeLa cells, < 150000 nM.
Turning to `CC1=C[C@]23C(=O)[C@@H](C=C(CO)[C@@H](O)[C@]2(O)[C@H]1OC(=O)c1nccc2ccccc12)[C@H]1[C@@H](C[C@H]3C)C1(C)C` [Compound 512, Ingenol 3-(isoquinoline-1-carboxylate)], the EC50 in experiment [1] was 20 to 100 nM; in the experiment on HeLa cells, < 150000 nM.
On the same counts, the results for `CC1=C[C@]23C(=O)[C@@H](C=C(CO)[C@@H](O)[C@]2(O)[C@H]1OC(=O)c1ccnc2ccccc12)[C@H]1[C@@H](C[C@H]3C)C1(C)C` [Compound 513, Ingenol 3-(quinoline-4-carboxylate)] are < 20 nM and < 150000 nM.
Take `CC1=C[C@]23C(=O)[C@@H](C=C(CO)[C@@H](O)[C@]2(O)[C@H]1OC(=O)c1cncn1-c1ccccc1)[C@H]1[C@@H](C[C@H]3C)C1(C)C` [Compound 515, Ingenol 3-(3-phenylimidazole-4-carboxylate)]: the results for the EC50 (in experiment [1]; in the experiment on HeLa cells) were < 20 nM and < 150000 nM, respectively.
Turning to `CC1=C[C@]23C(=O)[C@@H](C=C(CO)[C@@H](O)[C@]2(O)[C@H]1OC(=O)c1ncccc1Br)[C@H]1[C@@H](C[C@H]3C)C1(C)C` [Compound 524, Ingenol 3-(3-bromopyridine-2-carboxylate)], the concentration for a half-maximal effect (EC50) in experiment [1] was 20 to 100 nM; in the experiment with HeLa cells it was 150000 to 350000 nM.
On the same counts, the results for `CC1=C[C@]23C(=O)[C@@H](C=C(CO)[C@@H](O)[C@]2(O)[C@H]1OC(=O)c1c(C)nc2ccccn12)[C@H]1[C@@H](C[C@H]3C)C1(C)C` [Compound 535, Ingenol 3-(2-methylimidazo[1,2-a]pyridine-3-carboxylate)] are < 20 nM and 150000 to 350000 nM.
On the same counts, the results for `CCn1c(C)cc(C)c1C(=O)O[C@H]1C(C)=C[C@]23C(=O)[C@@H](C=C(CO)[C@@H](O)[C@]12O)[C@H]1[C@@H](C[C@H]3C)C1(C)C` [Compound 543, Ingenol 3-(1-ethyl-3,5-dimethylpyrrole-2-carboxylate)] are < 20 nM and < 150000 nM.
Turning to `CC1=C[C@]23C(=O)[C@@H](C=C(CO)[C@@H](O)[C@]2(O)[C@H]1OC(=O)[C@@H]1CCCN1c1ccccc1)[C@H]1[C@@H](C[C@H]3C)C1(C)C` [Compound 545, Ingenol 3-((2S)-1-phenylpyrrolidine-2-carboxylate)], the EC50 in experiment [1] is 20 to 100 nM; in the experiment on HeLa cells, 150000 to 350000 nM.
The like results for `CC1=C[C@]23C(=O)[C@@H](C=C(CO)[C@@H](O)[C@]2(O)[C@H]1OC(=O)c1c(C)nn(CC2CCOCC2)c1C)[C@H]1[C@@H](C[C@H]3C)C1(C)C` [Compound 561, Ingenol 3-(3,5-dimethyl-1-(tetrahydropyran-4-ylmethyl)pyrazole-4-carboxylate)] were, in that order, 20 to 100 nM and 150000 to 350000 nM.
`CCNC(=O)O[C@H]1C(C)=C[C@]23C(=O)[C@@H](C=C(CO)[C@@H](O)[C@]12O)[C@H]1[C@@H](C[C@H]3C)C1(C)C` [Compound 701, Ingenol 3-(N-ethyl-carbamate)]: in experiment [1], the EC50 fell in the range of 20 to 100 nM.
On to `CC1=C[C@]23C(=O)[C@@H](C=C(CO)[C@@H](O)[C@]2(O)[C@H]1OC(=O)N(C)c1ccc(F)cc1)[C@H]1[C@@H](C[C@H]3C)C1(C)C` [Compound 730, Ingenol 3-(N-(4-fluoro-phenyl)-N-methyl-carbamate)], for which the EC50 in the experiment on HeLa cells fell in the range of 150000 to 350000 nM.
